ChEMBL document CHEMBL4145553, “Design, synthesis, and biological evaluation of novel amide and hydrazide based thioether analogs targeting Histone deacteylase (HDAC) enzymes” (Eur J Med Chem, 2018)
Calls of active or inactive are those of the source. No cut-off for these calls is given here.

What was measured:
[1] = tested on: K562; assay: Growth inhibition of human K562 cells assessed as cell growth at 10^-8 M incubated for 48 hrs by sulforhodamine B assay relative to control; type: functional; settings: K562, 48 h, read-out: Activity
[2] = tested on: NCI-H23; assay: Growth inhibition of human NCI-H23 cells assessed as cell growth at 10^-8 M incubated for 48 hrs by sulforhodamine B assay relative to control; type: functional; settings: NCI-H23, 48 h, read-out: Activity
[3] = tested on: KM12; assay: Growth inhibition of human KM12 cells assessed as cell growth at 10^-8 M incubated for 48 hrs by sulforhodamine B assay relative to control; type: functional; settings: KM12, 48 h, read-out: Activity
[4] = tested on: SNB-19; assay: Growth inhibition of human SNB19 cells assessed as cell growth at 10^-8 M incubated for 48 hrs by sulforhodamine B assay relative to control; type: functional; settings: SNB-19, 48 h, read-out: Activity
[5] = tested on: M14; assay: Growth inhibition of human M14 cells assessed as cell growth at 10^-8 M incubated for 48 hrs by sulforhodamine B assay relative to control; type: functional; settings: M14, 48 h, read-out: Activity
[6] = tested on: SK-OV-3; assay: Growth inhibition of human SKOV3 cells assessed as cell growth at 10^-8 M incubated for 48 hrs by sulforhodamine B assay relative to control; type: functional; settings: SK-OV-3, 48 h, read-out: Activity
[7] = tested on: IGROV-1; assay: Growth inhibition of human IGROV1 cells assessed as cell growth at 10^-7 M incubated for 48 hrs by sulforhodamine B assay relative to control; type: functional; settings: IGROV-1, 48 h, read-out: Activity
[8] = tested on: NCI/ADR-RES; assay: Growth inhibition of human NCI/ADR-RES cells assessed as cell growth at 10^-7 M incubated for 48 hrs by sulforhodamine B assay relative to control; type: functional; settings: read-out: Activity
[9] = tested on: MDA-MB-468; assay: Growth inhibition of human MDA-MB-468 cells assessed as cell growth at 10^-7 M incubated for 48 hrs by sulforhodamine B assay relative to control; type: functional; settings: MDA-MB-468, 48 h, read-out: Activity
[10] = tested on: A549; assay: Growth inhibition of human A549/ATCC cells assessed as cell growth at 10^-6 M incubated for 48 hrs by sulforhodamine B assay relative to control; type: functional; settings: A549, 48 h, read-out: Activity
[11] = tested on: SF-295; assay: Growth inhibition of human SF295 cells assessed as cell growth at 10^-6 M incubated for 48 hrs by sulforhodamine B assay relative to control; type: functional; settings: SF-295, 48 h, read-out: Activity
[12] = tested on: UACC-257; assay: Growth inhibition of human UACC257 cells assessed as cell growth at 10^-6 M incubated for 48 hrs by sulforhodamine B assay relative to control; type: functional; settings: UACC-257, 48 h, read-out: Activity
[13] = tested on: OVCAR-8; assay: Growth inhibition of human OVCAR8 cells assessed as cell growth at 10^-6 M incubated for 48 hrs by sulforhodamine B assay relative to control; type: functional; settings: OVCAR-8, 48 h, read-out: Activity
[14] = tested on: NCI-H522; assay: Growth inhibition of human NCI-H522 cells assessed as cell growth at 10^-5 M incubated for 48 hrs by sulforhodamine B assay relative to control; type: functional; settings: NCI-H522, 48 h, read-out: Activity
[15] = tested on: K562; assay: Growth inhibition of human K562 cells assessed as cell growth at 10^-4 M incubated for 48 hrs by sulforhodamine B assay relative to control; type: functional; settings: K562, 48 h, read-out: Activity
[16] = tested on: HCC 2998; assay: Growth inhibition of human HCC2998 cells assessed as cell growth at 10^-4 M incubated for 48 hrs by sulforhodamine B assay relative to control; type: functional; settings: HCC 2998, 48 h, read-out: Activity
[17] = tested on: SNB-19; assay: Growth inhibition of human SNB19 cells assessed as cell growth at 10^-4 M incubated for 48 hrs by sulforhodamine B assay relative to control; type: functional; settings: SNB-19, 48 h, read-out: Activity
[18] = tested on: U-251; assay: Growth inhibition of human U251 cells assessed as cell growth at 10^-4 M incubated for 48 hrs by sulforhodamine B assay relative to control; type: functional; settings: U-251, 48 h, read-out: Activity
[19] = tested on: RXF 393; assay: Growth inhibition of human RXF393 cells assessed as cell growth at 10^-4 M incubated for 48 hrs by sulforhodamine B assay relative to control; type: functional; settings: RXF 393, 48 h, read-out: Activity
[20] = tested on: HL-60(TB); assay: Growth inhibition of human HL-60(TB) cells incubated for 48 hrs by sulforhodamine B assay; type: functional; settings: HL-60, 48 h
[21] = tested on: SF-268; assay: Growth inhibition of human SF268 cells incubated for 48 hrs by sulforhodamine B assay; type: functional; settings: SF-268, 48 h
[22] = tested on: OVCAR-4; assay: Growth inhibition of human OVCAR4 cells incubated for 48 hrs by sulforhodamine B assay; type: functional; settings: OVCAR-4, 48 h
[23] = tested on: OVCAR-5; assay: Growth inhibition of human OVCAR5 cells incubated for 48 hrs by sulforhodamine B assay; type: functional; settings: OVCAR-5, 48 h
[24] = tested on: MCF7; assay: Growth inhibition of human MCF7 cells incubated for 48 hrs by sulforhodamine B assay; type: functional; settings: MCF7, 48 h
[25] = tested on: BT-549; assay: Growth inhibition of human BT549 cells incubated for 48 hrs by sulforhodamine B assay; type: functional; settings: BT-549, 48 h
[26] = tested on: MDA-MB-468; assay: Growth inhibition of human MDA-MB-468 cells incubated for 48 hrs by sulforhodamine B assay; type: functional; settings: MDA-MB-468, 48 h
[27] = tested on: HL-60; assay: Cell cycle arrest in human HL60 cells assessed as accumulation at S-phase by propidium iodide staining based flow cytometry (reference value: 24.9%); type: functional
[28] = tested on: HL-60; assay: Induction of apoptosis in human HL60 cells assessed as increase in caspase-3 expression by qRT-PCR method; type: functional, cell-based
[29] = tested on: HL-60; assay: Induction of apoptosis in human HL60 cells assessed as increase in caspase-9 expression by qRT-PCR method; type: functional, cell-based
[30] = read-out: LC50 (the source's name)
[31] = read-out: pLC50 (the source's name) (converted)

CCS/C(Nc1ccccc1)=C(\C#N)C(=O)Nc1ccc(OC)cc1
growth at 0.01 µM [1]: 106%
growth at 0.01 µM [2]: 97%
growth at 0.01 µM [3]: 100%
growth at 0.01 µM [4]: 98%
growth at 0.01 µM [5]: 102%
growth at 0.01 µM [6]: 103%
growth at 0.1 µM [7]: 101%
growth at 0.1 µM [8]: 95%
growth at 0.1 µM [9]: 86%
growth at 1 µM [10]: 99%
growth at 1 µM [11]: 82%
growth at 1 µM [12]: 93%
growth at 1 µM [13]: 98%
growth at 10 µM [14]: -1%
growth at 100 µM [15]: 10%
growth at 100 µM [16]: 7%
growth at 100 µM [17]: 14%
growth at 100 µM [18]: 6%
growth at 100 µM [19]: -20%
GI50 ([20]; read-out: GI50): 2.87 µM
CC50 [20, 30]: > 100 µM
TGI ([20]; read-out: TGI): > 100 µM
GI50 ([20]; read-out: pGI50 (converted)): 2.88 µM
CC50 [20, 31]: > 100 µM
TGI ([20]; read-out: pTGI): > 100 µM
GI50 ([21]; read-out: GI50): 6.8 µM
CC50 [21, 30]: > 100 µM
TGI ([21]; read-out: TGI): > 100 µM
GI50 ([21]; read-out: pGI50 (converted)): 6.76 µM
CC50 [21, 31]: > 100 µM
TGI ([21]; read-out: pTGI): > 100 µM
GI50 ([22]; read-out: GI50): 7.61 µM
CC50 [22, 30]: > 100 µM
TGI ([22]; read-out: TGI): > 100 µM
GI50 ([22]; read-out: pGI50 (converted)): 7.59 µM
CC50 [22, 31]: > 100 µM
TGI ([22]; read-out: pTGI): > 100 µM
GI50 ([23]; read-out: GI50): 5.52 µM
CC50 [23, 30]: > 100 µM
TGI ([23]; read-out: TGI): > 100 µM
GI50 ([23]; read-out: pGI50 (converted)): 5.5 µM
CC50 [23, 31]: > 100 µM
TGI ([23]; read-out: pTGI): > 100 µM
GI50 ([24]; read-out: GI50): 2.71 µM
CC50 [24, 30]: > 100 µM
TGI ([24]; read-out: TGI): > 100 µM
GI50 ([24]; read-out: pGI50 (converted)): 2.69 µM
CC50 [24, 31]: > 100 µM
TGI ([24]; read-out: pTGI): > 100 µM
GI50 ([25]; read-out: GI50): 2.8 µM
CC50 [25, 30]: > 100 µM
TGI ([25]; read-out: TGI): > 100 µM
GI50 ([25]; read-out: pGI50 (converted)): 2.82 µM
CC50 [25, 31]: > 100 µM
TGI ([25]; read-out: pTGI): > 100 µM
GI50 ([26]; read-out: GI50): 1.39 µM
CC50 [26, 30]: > 100 µM
TGI ([26]; read-out: TGI): 7.51 µM
GI50 ([26]; read-out: pGI50 (converted)): 1.38 µM
CC50 [26, 31]: > 100 µM
TGI ([26]; read-out: pTGI (converted)): 7.59 µM
Activity [27]: 15.51%
Activity [28]: Active
Activity [29]: Active

CCS/C(Nc1ccccc1)=C(\C#N)C(=O)N/N=C\c1ccc(Cl)cc1Cl
growth at 0.01 µM [1]: 106%
growth at 0.01 µM [2]: 105%
growth at 0.01 µM [3]: 101%
growth at 0.01 µM [4]: 97%
growth at 0.01 µM [5]: 101%
growth at 0.01 µM [6]: 99%
growth at 0.1 µM [7]: 98%
growth at 0.1 µM [8]: 97%
growth at 0.1 µM [9]: 88%
growth at 1 µM [10]: 92%
growth at 1 µM [11]: 80%
growth at 1 µM [12]: 92%
growth at 1 µM [13]: 99%
growth at 10 µM [14]: -2%
growth at 100 µM [15]: 7%
growth at 100 µM [16]: 35%
growth at 100 µM [17]: 21%
growth at 100 µM [18]: 12%
growth at 100 µM [19]: -22%
GI50 ([20]; read-out: GI50): 3.2 µM
CC50 [20, 30]: > 100 µM
TGI ([20]; read-out: TGI): > 100 µM
GI50 ([20]; read-out: pGI50 (converted)): 3.24 µM
CC50 [20, 31]: > 100 µM
TGI ([20]; read-out: pTGI): > 100 µM
GI50 ([21]; read-out: GI50): 6.58 µM
CC50 [21, 30]: > 100 µM
TGI ([21]; read-out: TGI): > 100 µM
GI50 ([21]; read-out: pGI50 (converted)): 6.61 µM
CC50 [21, 31]: > 100 µM
TGI ([21]; read-out: pTGI): > 100 µM
GI50 ([22]; read-out: GI50): 6.57 µM
CC50 [22, 30]: > 100 µM
TGI ([22]; read-out: TGI): > 100 µM
GI50 ([22]; read-out: pGI50 (converted)): 6.61 µM
CC50 [22, 31]: > 100 µM
TGI ([22]; read-out: pTGI): > 100 µM
GI50 ([23]; read-out: GI50): 8.25 µM
CC50 [23, 30]: > 100 µM
TGI ([23]; read-out: TGI): > 100 µM
GI50 ([23]; read-out: pGI50 (converted)): 8.32 µM
CC50 [23, 31]: > 100 µM
TGI ([23]; read-out: pTGI): > 100 µM
GI50 ([24]; read-out: GI50): 2.99 µM
CC50 [24, 30]: > 100 µM
TGI ([24]; read-out: TGI): > 100 µM
GI50 ([24]; read-out: pGI50 (converted)): 3.02 µM
CC50 [24, 31]: > 100 µM
TGI ([24]; read-out: pTGI): > 100 µM
GI50 ([25]; read-out: GI50): 2.8 µM
CC50 [25, 30]: > 100 µM
TGI ([25]; read-out: TGI): > 100 µM
GI50 ([25]; read-out: pGI50 (converted)): 2.82 µM
CC50 [25, 31]: > 100 µM
TGI ([25]; read-out: pTGI): > 100 µM
GI50 ([26]; read-out: GI50): 2.6 µM
CC50 [26, 30]: > 100 µM
TGI ([26]; read-out: TGI): 9.19 µM
GI50 ([26]; read-out: pGI50 (converted)): 2.63 µM
CC50 [26, 31]: > 100 µM
TGI ([26]; read-out: pTGI (converted)): 9.12 µM
Activity [27]: 13.18%
Activity [28]: Active
Activity [29]: Active
